# Data as given in ChEMBL document CHEMBL1201862, “PubChem BioAssay data set” (2004).
#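 1) Cells in 96-well plates. 2) Compound, 48 h, 5 concentrations. 3) Linear interpolation between surrounding doses. 4) Unreached endpoint = highest concentration. GI50 = concentration required for 50% inhibition of growth.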 The source made the active and inactive calls. Rule as the data show it: active = GI50 up to about 1.1 µM and inactive = higher.
# Key:
# Test in all cases: NCI-60 cell line screen, 48 h
# 786-0 = test system: 786-0
# A498 = test system: A498
# A549 = test system: A549
# ACHN = test system: ACHN
# CAKI-1 = test system: CAKI-1
# CCRF-CEM = test system: CCRF-CEM
# COLO 205 = test system: COLO 205
# DLD-1 = test system: DLD-1
# DMS-114 = test system: DMS-114
# DMS-273 = test system: DMS-273
# EKVX = test system: EKVX
# HCT-116 = test system: HCT-116
# HCT-15 = test system: HCT-15
# HL-60 = test system: HL-60
# HOP-18 = test system: HOP-18
# HOP-62 = test system: HOP-62
# HOP-92 = test system: HOP-92
# HT-29 = test system: HT-29
# IGROV-1 = test system: IGROV-1
# K562 = test system: K562
# KM-20L2 = test system: KM-20L2
# KM12 = test system: KM12
# LOX IMVI = test system: LOX IMVI
# LXFL 529 = test system: LXFL 529
# M14 = test system: M14
# M19-MEL = test system: M19-MEL
# MOLT-4 = test system: MOLT-4
# Malme-3M = test system: Malme-3M
# NCI-H226 = test system: NCI-H226
# NCI-H23 = test system: NCI-H23
# NCI-H460 = test system: NCI-H460
# NCI-H522 = test system: NCI-H522
# OVCAR-3 = test system: OVCAR-3
# OVCAR-4 = test system: OVCAR-4
# OVCAR-5 = test system: OVCAR-5
# OVCAR-8 = test system: OVCAR-8
# RPMI-8226 = test system: RPMI-8226
# RXF 393 = test system: RXF 393
# RXF 631 = test system: RXF 631
# SF-268 = test system: SF-268
# SF-295 = test system: SF-295
# SF-539 = test system: SF-539
# SK-MEL-28 = test system: SK-MEL-28
# SK-MEL-2 = test system: SK-MEL-2
# SK-MEL-5 = test system: SK-MEL-5
# SK-OV-3 = test system: SK-OV-3
# SN12C = test system: SN12C
# SNB-19 = test system: SNB-19
# SNB-75 = test system: SNB-75
# SNB-78 = test system: SNB-78
# SR = test system: SR
# SW-620 = test system: SW-620
# TK-10 = test system: TK-10
# U-251 = test system: U-251
# UACC-257 = test system: UACC-257
# UACC-62 = test system: UACC-62
# UO-31 = test system: UO-31
# XF498 = test system: XF498
# HCC 2998 = test system: HCC 2998
smiles,measurement,setting,value
COc1ccc(/N=C/c2ccc(N(CCC#N)S(=O)(=O)c3ccccc3)cc2)cc1,GI50,786-0,> 100 µM (inactive)
same,GI50,A498,> 100 µM (inactive)
same,GI50,A549,> 100 µM (inactive)
same,GI50,ACHN,> 100 µM (inactive)
same,GI50,CAKI-1,> 100 µM (inactive)
same,GI50,CCRF-CEM,> 100 µM (inactive)
same,GI50,COLO 205,> 100 µM (inactive)
same,GI50,DLD-1,> 100 µM (inactive)
same,GI50,DMS-114,> 100 µM (inactive)
same,GI50,DMS-273,> 100 µM (inactive)
same,GI50,EKVX,> 100 µM (inactive)
same,GI50,HCT-116,> 100 µM (inactive)
same,GI50,HCT-15,> 100 µM
same,GI50,HL-60,> 100 µM (inactive)
same,GI50,HOP-18,> 100 µM (inactive)
same,GI50,HOP-62,> 100 µM (inactive)
same,GI50,HOP-92,> 100 µM (inactive)
same,GI50,HT-29,> 100 µM (inactive)
same,GI50,IGROV-1,> 100 µM (inactive)
same,GI50,K562,68.1 µM (inactive)
same,GI50,KM-20L2,> 100 µM (inactive)
same,GI50,KM12,> 100 µM (inactive)
same,GI50,LOX IMVI,> 100 µM (inactive)
same,GI50,LXFL 529,> 100 µM (inactive)
same,GI50,M14,> 100 µM (inactive)
same,GI50,M19-MEL,> 100 µM (inactive)
same,GI50,MOLT-4,> 100 µM (inactive)
same,GI50,Malme-3M,> 100 µM (inactive)
same,GI50,NCI-H226,> 100 µM (inactive)
same,GI50,NCI-H23,> 100 µM (inactive)
same,GI50,NCI-H460,> 100 µM (inactive)
same,GI50,NCI-H522,> 100 µM (inactive)
same,GI50,OVCAR-3,> 100 µM (inactive)
same,GI50,OVCAR-4,> 100 µM (inactive)
same,GI50,OVCAR-5,> 100 µM (inactive)
same,GI50,OVCAR-8,> 100 µM (inactive)
same,GI50,RPMI-8226,> 100 µM (inactive)
same,GI50,RXF 393,> 100 µM (inactive)
same,GI50,RXF 631,> 100 µM (inactive)
same,GI50,SF-268,> 100 µM (inactive)
same,GI50,SF-295,> 100 µM (inactive)
same,GI50,SF-539,> 100 µM (inactive)
same,GI50,SK-MEL-28,> 100 µM (inactive)
same,GI50,SK-MEL-2,> 100 µM (inactive)
same,GI50,SK-MEL-5,> 100 µM (inactive)
same,GI50,SK-OV-3,> 100 µM (inactive)
same,GI50,SN12C,> 100 µM (inactive)
same,GI50,SNB-19,> 100 µM (inactive)
same,GI50,SNB-75,> 100 µM (inactive)
same,GI50,SNB-78,> 100 µM (inactive)
same,GI50,SR,> 100 µM (inactive)
same,GI50,SW-620,> 100 µM (inactive)
same,GI50,TK-10,> 100 µM (inactive)
same,GI50,U-251,> 100 µM (inactive)
same,GI50,UACC-257,> 100 µM (inactive)
same,GI50,UACC-62,> 100 µM (inactive)
same,GI50,UO-31,> 100 µM (inactive)
same,GI50,XF498,> 100 µM (inactive)
C=C(CS(=O)(=O)c1ccccc1)C(=O)OCC,GI50,786-0,17.3 µM (inactive)
same,GI50,A549,18.5 µM (inactive)
same,GI50,ACHN,15.5 µM (inactive)
same,GI50,CAKI-1,18 µM (inactive)
same,GI50,CCRF-CEM,2.77 µM (inactive)
same,GI50,COLO 205,18.9 µM (inactive)
same,GI50,DLD-1,4.49 µM (inactive)
same,GI50,DMS-114,5.37 µM (inactive)
same,GI50,DMS-273,16.4 µM (inactive)
same,GI50,EKVX,19.7 µM (inactive)
same,GI50,HCC 2998,19.4 µM (inactive)
same,GI50,HCT-116,13.4 µM (inactive)
same,GI50,HCT-15,12.6 µM
same,GI50,HOP-92,21.4 µM (inactive)
same,GI50,HT-29,11.2 µM (inactive)
same,GI50,IGROV-1,19 µM (inactive)
same,GI50,K562,5.33 µM (inactive)
same,GI50,KM-20L2,21.8 µM (inactive)
same,GI50,KM12,16.1 µM (inactive)
same,GI50,LOX IMVI,10.5 µM (inactive)
same,GI50,LXFL 529,13.4 µM (inactive)
same,GI50,M14,11.6 µM (inactive)
same,GI50,MOLT-4,2.81 µM (inactive)
same,GI50,Malme-3M,16.1 µM (inactive)
same,GI50,NCI-H226,25.1 µM (inactive)
same,GI50,NCI-H23,18.2 µM (inactive)
same,GI50,NCI-H460,18.7 µM (inactive)
same,GI50,NCI-H522,3.41 µM (inactive)
same,GI50,OVCAR-3,13.4 µM (inactive)
same,GI50,OVCAR-5,19.6 µM (inactive)
same,GI50,OVCAR-8,10.5 µM (inactive)
same,GI50,RXF 393,11.7 µM (inactive)
same,GI50,RXF 631,1.9 µM (inactive)
same,GI50,SF-268,19.6 µM (inactive)
same,GI50,SF-295,18.1 µM (inactive)
same,GI50,SF-539,17.1 µM (inactive)
same,GI50,SK-MEL-28,15.1 µM (inactive)
same,GI50,SK-MEL-2,15.6 µM (inactive)
same,GI50,SK-OV-3,14.4 µM (inactive)
same,GI50,SN12C,16.3 µM (inactive)
same,GI50,SNB-19,20 µM (inactive)
same,GI50,SNB-75,17.4 µM (inactive)
same,GI50,SW-620,10.5 µM (inactive)
same,GI50,TK-10,17.4 µM (inactive)
same,GI50,U-251,16.9 µM (inactive)
same,GI50,UACC-257,12.8 µM (inactive)
same,GI50,UACC-62,4.74 µM (inactive)
same,GI50,UO-31,20 µM (inactive)
same,GI50,XF498,19.2 µM (inactive)
